# Measurements: article PMC7948455, “Novel drug discovery platform for spinocerebellar ataxia, using fluorescence technology targeting β-III-spectrin” (The Journal of Biological Chemistry, 2020)
# Entries after “also recorded” stand apart in the source; their conditions may differ. Where two headings read alike, the source gives them in different places.
# What was measured:
# [1] = target: T1, binding of the mutant β-III-spectrin L253P ABD to F-actin (Homo sapiens, UniProt O15020, L253P); test: Primary live-cell FRET assay (GFP-ABD-L253P + Lifeact-mCherry) in HEK293-6E cells; format: cell-based; settings: for Shift of FRET: 10 μM; for Effect of Hit compound on primary FRET: LOPAC Hits (10 μM screen, 4SD threshold, 120 min) and dose response
# T1 construct: the β-III-spectrin (human) ABD residues 1 to 284; expressed in transfected cells; host or cells: HEK293-6E (pTT5 vector, transient transfection)
# Protocol: To develop a biosensor that monitors the binding of mutant L253P β-III-spectrin to actin filaments in live cells, a FRET approach was tested. A FRET donor construct consisting of green fluorescent protein fused to the N terminus of the mutant ABD (GFP-ABD-L253P) was coexpressed in HEK293-EBNA1-6E (HEK293-6E) cells with a FRET acceptor construct consisting of the actin-binding peptide, Lifeact, fused to the N terminus of red fluorescent protein, mCherry (Lifeact-mCherry). Lifeact is a 17 amino acid peptide derived from the yeast actin-binding protein, ABP140 ([15]). […] The cryo-EM structures of ABD L253P and Lifeact on actin indicate that the binding sites overlap on actin units. With ABD L253P and Lifeact bound on neighboring actin units, we predicted an average distance of ∼80 Å between GFP and mCherry (Fig. 1). With a known Förster distance R0 of 52.4 Å ([17]), this corresponds to FRET value of 0.07, a sufficient signal for a biosensor platform. To design a system most compatible for large production and eventual screening of 50,000+ compound libraries, we used HEK293-6E cells, a suspension cell line that yields greater levels (>threefold) of recombinant protein expression ([18], [19]).
# With a constant amount of GFP-ABD-L253P expressed, increased Lifeact-mCherry expression increases FRET with an exponential plateau to 0.12 (Fig. 2A). To measure the nonspecific component of our FRET readout, we concurrently tested expression of mCherry in place of Lifeact-mCherry. For comparison, the Lifeact-mCherry and mCherry fluorescence intensity values (normalized to 1:1 GFP-ABD:Lifeact-mCherry sample) are plotted on the X-axis for samples transfected with different donor-to-acceptor DNA ratios. […] With the trade-off between high FRET and minimal nonspecific FRET, the donor:acceptor ratio 1:2 was chosen for the experiments that followed (Fig. 2A). […] Of note, we also tested the biosensor using WT-ABD, which yielded substantially lower FRET (Fig. S1), consistent with the 1000-fold decrease in affinity of WT-ABD for actin ([10]). We proceeded to test the compatibility of the GFP-ABD-L253P and Lifeact-mCherry assay for primary compound screening and the GFP-ABD-L253P and mCherry assay as a potential high-throughput counter screen.
# To test the performance of the assay in HTS, the 1280 LOPAC compounds, together with 256 DMSO controls, were dispensed in 5 nl volumes into individual wells of 1536-well microplates and stored at −20 °C until use. To test the reproducibility of replicate screens on the same day, a single batch of HEK293 cells was transfected with GFP-ABD-L253P and Lifeact-mCherry. In addition, control cells were transfected with only GFP-ABD-L253P, to determine compound effect on donor-only lifetime (τD). To test reproducibility of the screens across different days, identical transfections were performed on another batch of HEK293-6E cells on a second day. Following plate thaw, 5 μl of assay cells were loaded in each well via a multidrop liquid dispenser, and a time course of compound effects (at 20, 120, and 180 min post load) on fluorescence lifetime was acquired using a fluorescence lifetime plate reader (FLT-PR). This technology has been advanced to high-density 1536-well plates in recent years for successful HTS using a range of protein biosensors including sarcoplasmic reticulum Ca-ATPase ([24], [25], [26], [27]), ryanodine receptor ([23], [28]), actin ([20]), tumor necrosis factor receptor 1 ([29], [30]), and tau ([31]).
# At 2 × 10^6 cells/ml, HEK293-6E cells were transfected with GFP-ABD-L253P or GFP-ABD-WT (2.4 μg), Lifeact-mCherry (2.4–16.8 μg), mCherry (1.2–16.8 μg), and/or pTT5 (0.8–17.6 μg), as indicated, using the 293fectin protocol (Thermo Fisher Scientific) with 20 μg total DNA. Cells were transfected with either GFP-ABD-L253P or –WT, but coexpression of the WT and mutant isoform was not explored in this study. The cells were harvested 24 h later by centrifugation at 100g for 5 min and then washed twice with PBS. […]
# HEK293-6E cells = test: Trypan blue cell viability assay; format: cell-based
# Protocol: HEK293-6E cell viability was measured using trypan blue (0.03%) staining and a Countess Automated Cell counter (Invitrogen). Nontransfected HEK293-6E cells were spun at 100g for 5 min at 21 °C and resuspended in 10 ml of PBS. The centrifugation and resuspension were repeated twice more. Final cell concentration was 1 × 10^6 cells/ml. Cells were incubated with 2% DMSO or 3 to 50 μM compound (as indicated) for 3 h at room temperature (21 °C). After addition of 100 μl of 0.06% trypan blue solution in PBS, 10 μl was loaded on a slide and injected into the cell counter, and cell viability was measured.
# [2] = 10 μM Hit compound, 3 h incubation
# T1 sequence (O15020 1-284 L253P): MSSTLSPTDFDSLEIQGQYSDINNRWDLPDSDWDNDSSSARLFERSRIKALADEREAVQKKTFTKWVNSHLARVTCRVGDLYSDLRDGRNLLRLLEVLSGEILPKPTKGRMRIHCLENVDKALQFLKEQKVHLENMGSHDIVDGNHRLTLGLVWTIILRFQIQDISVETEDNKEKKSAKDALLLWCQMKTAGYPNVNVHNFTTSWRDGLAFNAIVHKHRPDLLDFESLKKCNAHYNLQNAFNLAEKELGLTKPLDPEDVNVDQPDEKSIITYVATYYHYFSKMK
Structure (SMILES),"Reduction of Total FRET in primary FRET assay ([1]; 1 μM swinholide A, relative to DMSO)","EC50 ([1]; Plate A, 1536-well, read-out: EC50 of specific FRET dose response)","EC50 ([1]; Plate B, 1536-well, read-out: EC50 of specific FRET dose response)","EC50 ([1]; Plate C, 1536-well, read-out: EC50 of specific FRET dose response)","Reduction in FRET (Fig. 2B) ([1]; swinholide A (3 μM in Fig. 2B legend), relative to DMSO, n = 3)","EC50 ([1]; triplicate 12-point concentration response, 1536-well plates, read-out: EC50 of FRET reduction, average)","Effect on HEK293-6E cell viability (HEK293-6E cells; 3 μM swinholide A, 50 μM tegaserod, 3 h)",Shift of FRET [1],Effect of Hit compound on primary FRET [1],Effect on HEK293-6E cell viability (HEK293-6E cells; [2])
CO[C@H]1C[C@H](CC[C@H](C)[C@H](O)[C@H](C)[C@H]2OC(=O)/C=C/C(C)=C/C[C@H](O)C[C@@H]3C=CC[C@@H](C[C@H](OC)[C@@H](C)[C@@H](O)C[C@@H](O)[C@H](C)[C@@H]([C@@H](C)[C@@H](O)[C@@H](C)CC[C@H]4C[C@H](OC)C[C@H](C)O4)OC(=O)/C=C/C(C)=C/C[C@H](O)C[C@@H]4C=CC[C@@H](C[C@H](OC)[C@@H](C)[C@@H](O)C[C@@H](O)[C@@H]2C)O4)O3)O[C@@H](C)C1 [swinholide A],> 50%,241 nM,284 nM,267 nM,56 ± 7%,264 nM,did not significantly alter,,,
CC(C)(C)c1ccc(/C=C/C(=O)Nc2ccc3c(c2)OCCO3)cc1 [AMG 9810],,,,,,,,2 to 14%,decrease FRET,do not significantly alter
CCCCCCCC/C=C\CCCCCCCC(=O)NCc1ccc(O)c(OC)c1 [olvanil],,,,,,,,2 to 14%,decrease FRET; also recorded: subtly reduced,do not significantly alter
O=C(O)c1cc([N+](=O)[O-])ccc1NCCCc1ccccc1 [NPPB],,,,,,,,,decrease FRET,do not significantly alter
CCOc1nc2cccc(C(=O)O)c2n1Cc1ccc(-c2ccccc2-c2nnn[nH]2)cc1 [candesartan],,,,,,,,2 to 14%,decrease FRET,do not significantly alter
